Data taken from article PMC9358669, “Native metabolomics identifies the rivulariapeptolide family of protease inhibitors” (Nature Communications, 2022).
Where “and” joins values, the source holds several entries; their conditions need not be identical. Equal values may be shown once. Read-outs that look alike come from different tables or passages of the source.

How the values were obtained:
[1] = molecular target: T1, Chymotrypsin (Bos taurus, UniProt P00766); assay: Chymotrypsin inhibition, fluorogenic substrate assay (Suc-Ala-Ala-Pro-Phe-AMC); type: biochemical; conditions: for Mean (RFU/s): Chymotrypsin
T1 construct: purchased Sigma-Aldrich

[2] = molecular target: T2, Elastase (Sus scrofa, UniProt P00772); assay: Elastase inhibition, fluorogenic substrate assay (MeOSuc-Ala-Ala-Pro-Val-AMC); type: biochemical, Sus domesticus; conditions: 40 min pre-incubation; for Mean (RFU/s): Elastase
T2 construct: purchased Sigma-Aldrich

[3] = molecular target: T3, Proteinase K (Parengyodontium album, UniProt P06873); assay: Proteinase K inhibition, fluorogenic substrate assay (Suc-Ala-Ala-Pro-Phe-AMC); type: biochemical, Tritirachium album; conditions: 40 min pre-incubation; for Mean (RFU/s): Proteinase K
T3 construct: purchased Roche

[4] = molecular target: T1, Chymotrypsin; assay: Native metabolomics / native MS detection of chymotrypsin-ligand complexes; type: binding; conditions: for max. Ligand-protein ratio: replicates A, B, C
Experimental: For native metabolomics experiments, the same chromatographic parameters were used and in addition, 220 µL/min (setup A) or 150 µL/min (setup B) ammonium acetate buffer was infused post-column through a make-up pump and a PEEKT-splitter and enzyme solution was infused with 2 µL/min flow rate via the integrated syringe pump. ESI settings were set to 40 arb. units sheath gas flow, the auxiliary gas flow was set to 10 arb. units and sweep gas flow was set to 0 arb. units. The auxiliary gas temperature was set to 150 °C. The spray voltage was set to 3 kV and the inlet capillary was heated to 253 °C. S-lens level was set to 30 V applied. MS scan range was set to 2000-4000 m/z (setup A) and 2500–4000 m/z (setup B) with a resolution Rm/z 200 140,000 (setup A) and 120,000 (setup B) with 2 microscans. MS acquisition was performed in all-ion fragmentation (AIF) mode with Rm/z 200 with 20% HCD collision energy and an isolation window of 2000 –4000 m/z (setup A) or 2500–4000 m/z (setup B).
For native LC-MS data, multiple charged spectra were deconvoluted using the Xtract algorithm in Qualbrowser, part of the Xcalibur software (Thermo Scientific) and also using FLASHDeconv (version 2.0Beta) {Jeong, K. et al. FLASHDeconv: Ultrafast, High-Quality Feature Deconvolution for Top- Down Proteomics. Cell Syst 10, 213-218 e216 (2020).}. For Xtract algorithm, both deconvoluted native LC-MS and metabolomics LC-MS/MS.raw files were converted to the centroid.mzML file format using MSconvert of the proteowizard software package. For FLASHDeconv, the raw files were converted into centroid m/zML again using MSconvert software first. Then the converted mzML files were deconvolved to generate deconvolved.mzML format files. Feature finding of both file types was performed using a modified version of MZmine2.37 (corr.17.7). Feature tables from both intact protein mass and metabolomics data were matched by their retention time (RT) and an m/z offset corresponding to the mass of chymotrypsin (25234 Da) with an RT tolerance of 0.2 min and a mass tolerance of 4 Da.
To optimize ESI setting as well as the influence of NH4Acetate concentration and pH, we used molassamide as a test compound. For optimization of ESI settings, we performed flow injections without a column and ramped ESI aux gas temperature, in-source CID energy, S-lense RF voltage. Optimization of pH values over the entire LC gradient and peak intensities were both assessed using three different make-up buffers. Make-up buffer 1 was water, make-up buffer 2 was 10 mM NH4Acetate buffer, and make-up buffer 3 was 10 mM NH4Acetate buffer + 0.2% ammonium hydroxide, v/v. Effects of NH4Acetate concentration was assessed with an online mixed make-up flow (using Experimental Setup B) with the low-pressure gradient pump. As solvent A we used LC-MS grade water and 100 mM NH4Acetate as solvent B. Molassamide was prepared as 100 µM solutions from a 10 mM stock solution in DMSO by preparing a 1:100 dilution into solvent mixture 1 (water + 10% acetonitrile + 0.1% formic acid). Samples were analyzed as described in micro-flow LC-MS/MS data acquisition (setup A); 2 µL of each solution were injected into the mass spectrometer, while chymotrypsin (Sigma), dissolved in water to a final concentration of 2 mg/mL, was injected through the syringe pump at a flow rate of 2 µL/min. pH values were assessed by disconnecting the flow to the source and collecting ~30 µL of solvent every minute, then testing this value on pH paper.
Molassamide was prepared as 100 µM solutions from a 10 mM stock solution in DMSO by preparing a 1:100 dilution into solvent mixture 1 (water + 10% acetonitrile + 0.1% formic acid). From this 100 µM solution, dilutions were prepared at 10, 1, and 0.1 µM into solvent mixture 1. 2 µL of each solution were injected into the mass spectrometer. […]

[5] = system: Chymotrypsin; set-up: method as in earlier work; conditions: Supplementary Table 5, Top 50 chymotrypsin inhibitors among Ahp-cyclodepsipeptides; cited from earlier work
[6] = inhibitor concentration 0.0508053 nM
[7] = inhibitor concentration 0.152416 nM
[8] = inhibitor concentration 0.457247 nM
[9] = inhibitor concentration 1.37174 nM
[10] = inhibitor concentration 4.11523 nM
[11] = inhibitor concentration 12.3457 nM
[12] = inhibitor concentration 37.037 nM
[13] = inhibitor concentration 111.111 nM
[14] = inhibitor concentration 333.333 nM
[15] = inhibitor concentration 1000 nM
[16] = inhibitor concentration 3000 nM

T3 sequence (P06873 106-384): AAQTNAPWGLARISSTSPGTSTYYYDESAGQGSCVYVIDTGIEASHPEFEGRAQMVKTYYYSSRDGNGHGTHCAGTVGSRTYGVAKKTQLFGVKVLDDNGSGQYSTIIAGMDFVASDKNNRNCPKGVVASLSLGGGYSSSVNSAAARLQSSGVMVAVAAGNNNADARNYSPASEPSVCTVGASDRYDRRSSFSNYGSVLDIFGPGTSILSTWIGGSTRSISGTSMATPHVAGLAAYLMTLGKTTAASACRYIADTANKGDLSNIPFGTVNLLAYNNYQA
T2 sequence (P00772 27-266): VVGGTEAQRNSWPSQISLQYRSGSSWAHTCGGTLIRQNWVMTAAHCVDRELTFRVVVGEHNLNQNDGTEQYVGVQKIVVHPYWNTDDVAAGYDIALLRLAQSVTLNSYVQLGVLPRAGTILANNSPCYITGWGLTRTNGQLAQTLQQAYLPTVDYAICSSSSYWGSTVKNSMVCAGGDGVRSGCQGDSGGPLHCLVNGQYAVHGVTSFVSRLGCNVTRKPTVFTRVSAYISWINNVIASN

## C/C=C1\NC(=O)[C@@H](NC(=O)[C@@H](NC(=O)[C@H](C)NC(=O)CCC)[C@@H](C)O)[C@@H](C)OC(=O)[C@H](C(C)C)NC(=O)[C@H](Cc2ccc(O)cc2)N(C)C(=O)[C@H](Cc2ccccc2)N2C(=O)[C@H](CC[C@H]2O)NC1=O [Molassamide, molassamide]
[1]; 40 min pre-incubation, mean, n = 3, read-out: IC50 Chymotrypsin
  IC50: 0.863 µM
[1]; inhibitor concentration 0.0508053 nM, 40 min pre-incubation
  Mean (RFU/s): 5.082 RFU/s
[1]; inhibitor concentration 0.152416 nM, 40 min pre-incubation
  Mean (RFU/s): 5.023 RFU/s
[1]; inhibitor concentration 0.457247 nM, 40 min pre-incubation
  Mean (RFU/s): 5.172 RFU/s
[1]; inhibitor concentration 1.37174 nM, 40 min pre-incubation
  Mean (RFU/s): 5.411 RFU/s
[1]; inhibitor concentration 4.11523 nM, 40 min pre-incubation
  Mean (RFU/s): 5.346 RFU/s
[1]; inhibitor concentration 12.3457 nM, 40 min pre-incubation
  Mean (RFU/s): 5.257 RFU/s
[1]; inhibitor concentration 37.037 nM, 40 min pre-incubation
  Mean (RFU/s): 4.609 RFU/s
[1]; inhibitor concentration 111.111 nM, 40 min pre-incubation
  Mean (RFU/s): 4.56 RFU/s
[1]; inhibitor concentration 333.333 nM, 40 min pre-incubation
  Mean (RFU/s): 3.784 RFU/s
[1]; inhibitor concentration 1000 nM, 40 min pre-incubation
  Mean (RFU/s): 2.129 RFU/s
[1]; inhibitor concentration 3000 nM, 40 min pre-incubation
  Mean (RFU/s): 0.9597 RFU/s
[1]; Supplementary Table 5, compounds of this study, read-out: Chymotrypsin IC50
  IC50: 0.862 µM
[2]; mean, n = 3
  IC50: 0.0376 µM
[2]; [6]
  Mean (RFU/s): 0.8563 RFU/s
[2]; [7]
  Mean (RFU/s): 0.8307 RFU/s
[2]; [8]
  Mean (RFU/s): 0.841 RFU/s
[2]; [9]
  Mean (RFU/s): 0.8127 RFU/s
[2]; [10]
  Mean (RFU/s): 0.7663 RFU/s
[2]; [11]
  Mean (RFU/s): 0.6947 RFU/s
[2]; [12]
  Mean (RFU/s): 0.4253 RFU/s
[2]; [13]
  Mean (RFU/s): 0.1337 RFU/s
[2]; [14]
  Mean (RFU/s): 0.03867 RFU/s
[2]; [15]
  Mean (RFU/s): 0 RFU/s
[2]; [16]
  Mean (RFU/s): 0 RFU/s
[3]; mean, n = 3
  IC50: 0.0216 µM
[3]; [6]
  Mean (RFU/s): 6.609 RFU/s
[3]; [7]
  Mean (RFU/s): 6.463 RFU/s
[3]; [8]
  Mean (RFU/s): 6.371 RFU/s
[3]; [9]
  Mean (RFU/s): 6.067 RFU/s
[3]; [10]
  Mean (RFU/s): 5.597 RFU/s
[3]; [11]
  Mean (RFU/s): 4.375 RFU/s
[3]; [12]
  Mean (RFU/s): 2.174 RFU/s
[3]; [13]
  Mean (RFU/s): 0.71 RFU/s
[3]; [14]
  Mean (RFU/s): 0.19 RFU/s
[3]; [15]
  Mean (RFU/s): 0.07 RFU/s
[3]; [16]
  Mean (RFU/s): 0 RFU/s
[4]; HESI Aux Gas Temperature 40 °C
  Relative abundance Chymotrypsin-molassamide complex [%], Average: 32.7%
[4]; HESI Aux Gas Temperature 70 °C
  Relative abundance Chymotrypsin-molassamide complex [%], Average: 28.3%
[4]; HESI Aux Gas Temperature 100 °C
  Relative abundance Chymotrypsin-molassamide complex [%], Average: 32.3%
[4]; HESI Aux Gas Temperature 140 °C
  Relative abundance Chymotrypsin-molassamide complex [%], Average: 39.0%
[4]; HESI Aux Gas Temperature 170 °C
  Relative abundance Chymotrypsin-molassamide complex [%], Average: 34.0%
[4]; HESI Aux Gas Temperature 200 °C
  Relative abundance Chymotrypsin-molassamide complex [%], Average: 35.3%
[4]; HESI Aux Gas Temperature 250 °C
  Relative abundance Chymotrypsin-molassamide complex [%], Average: 27.7%
[4]; HESI Aux Gas Temperature 300 °C
  Relative abundance Chymotrypsin-molassamide complex [%], Average: 28.7%
[4]; In-Source CID Energy 0 eV
  Relative abundance Chymotrypsin-molassamide complex [%], Average: 27.7%
[4]; In-Source CID Energy 10 eV
  Relative abundance Chymotrypsin-molassamide complex [%], Average: 29.3%
[4]; In-Source CID Energy 20 eV
  Relative abundance Chymotrypsin-molassamide complex [%], Average: 33.0%
[4]; In-Source CID Energy 30 eV
  Relative abundance Chymotrypsin-molassamide complex [%], Average: 32.3%
[4]; In-Source CID Energy 40 eV
  Relative abundance Chymotrypsin-molassamide complex [%], Average: 30.7%
[4]; In-Source CID Energy 60 eV
  Relative abundance Chymotrypsin-molassamide complex [%], Average: 12.3%
[4]; In-Source CID Energy 80 eV
  Relative abundance Chymotrypsin-molassamide complex [%], Average: 1.3%
[4]; S-Lense RF level 10 %
  Relative abundance Chymotrypsin-molassamide complex [%], Average: 34.3%
[4]; S-Lense RF level 30 %
  Relative abundance Chymotrypsin-molassamide complex [%], Average: 31.0%
[4]; S-Lense RF level 50 %
  Relative abundance Chymotrypsin-molassamide complex [%], Average: 30.0%
[4]; S-Lense RF level 70 %
  Relative abundance Chymotrypsin-molassamide complex [%], Average: 40.7%
[4]; S-Lense RF level 90 %
  Relative abundance Chymotrypsin-molassamide complex [%], Average: 30.7%
[4]; concentration 0.01 µM
  max. Ligand-protein ratio: 0.00
[4]; concentration 0.10 µM
  max. Ligand-protein ratio: 0.0566 and 0.0543 and 0.05
[4]; concentration 1.00 µM
  max. Ligand-protein ratio: 0.25 and 0.22 and 0.26
[4]; concentration 6.67 µM
  max. Ligand-protein ratio: 0.77 (2×) and 0.82
[4]; concentration 12.50 µM
  max. Ligand-protein ratio: 0.98 and 0.93 and 0.99
[4]; concentration 20.00 µM
  max. Ligand-protein ratio: 0.94 (2×) and 1.00
[4]; concentration [µM] 0.1
  Peak Area Protein-Ligand-Complex: 6.16E+04
[4]; concentration [µM] 1
  Peak Area Protein-Ligand-Complex: 8.18E+05
[4]; concentration [µM] 10
  Peak Area Protein-Ligand-Complex: 1.09E+07
[4]; concentration [µM] 50
  Peak Area Protein-Ligand-Complex: 4.40E+07
[4]; concentration [µM] 100
  Peak Area Protein-Ligand-Complex: 7.00E+07
[5]
  IC50: 0.234 µM
